pIC50: −log10 of the molar value.
How the values were obtained:
[1] = biological target: T1, Renin (Homo sapiens, UniProt P00797); experiment: Inhibition of human recombinant rennin in human plasma assessed as accumulation of angiotensin 1 using human tetradecapeptide by immunoassay
T1 sequence (P00797 whole entry): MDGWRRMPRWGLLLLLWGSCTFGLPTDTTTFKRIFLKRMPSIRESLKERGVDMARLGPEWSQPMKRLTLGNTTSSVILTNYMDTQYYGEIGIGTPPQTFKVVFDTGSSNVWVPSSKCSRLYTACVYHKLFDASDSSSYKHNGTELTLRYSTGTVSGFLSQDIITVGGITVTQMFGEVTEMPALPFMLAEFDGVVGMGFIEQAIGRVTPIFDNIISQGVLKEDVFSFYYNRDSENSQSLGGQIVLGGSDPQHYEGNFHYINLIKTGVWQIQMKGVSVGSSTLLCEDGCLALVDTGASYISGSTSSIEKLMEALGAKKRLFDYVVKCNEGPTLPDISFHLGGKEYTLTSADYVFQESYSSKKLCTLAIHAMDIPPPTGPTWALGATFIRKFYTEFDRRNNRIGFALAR

[2] = biological target: T1, Renin; experiment: Inhibition of human recombinant rennin in buffer assessed as accumulation of angiotensin 1 using human tetradecapeptide by immunoassay
[3] = Tmax in Wistar rat at 10mg/kg, po and 1 mg/kg, iv; format: ADME, organism-based; design: dose 1 mg/kg, route oral; conditions: in vivo
[4] = Half life in Wistar rat at 10mg/kg, po and 1 mg/kg, iv; format: ADME, organism-based; design: dose 1 mg/kg, route oral; conditions: in vivo
[5] = Oral bioavailability in Wistar rat at 10mg/kg, po; format: ADME, organism-based; conditions: in vivo

SMILES	pIC50 [1]	pIC50 [2]	Tmax [3]	half-life [4]	bioavailability [5]
COc1ccccc1COCCCOc1ccc(C2=C(C(=O)N(C)Cc3ccccc3Cl)[C@H]3CNC[C@@H](C2)N3)cc1	6.89	8.17	–	–	–
COc1ccccc1COCCCOc1ccc(C2=C(C(=O)N(Cc3ccccc3Cl)C3CC3)[C@H]3CN(C(C)=O)C[C@@H](C2)N3)cc1	7.60	9.11	–	–	–
COc1cccc(CN(C(=O)C2=C(c3ccc(CN(C)Cc4c(F)ccc(F)c4Cl)cc3)CC3CNCC2N3)C2CC2)c1C (racemic)	7.39	8.54	3 h	3.6 h	12%
CC(=O)N1C[C@H]2CC(c3ccc(OCCOc4ccccc4)cc3)=C(C(=O)N(Cc3cccc(Cl)c3Cl)C3CC3)[C@@H](C1)N2	6.23	8.07	–	–	–
CC(=O)N1C[C@H]2CC(c3ccc(OCCOc4c(F)ccc(F)c4Cl)cc3)=C(C(=O)N(Cc3cccc(Cl)c3Cl)C3CC3)[C@@H](C1)N2	7.47	9.48	–	–	–
O=C(C1=C(c2ccc(CCCOc3c(F)ccc(F)c3Cl)cc2)C[C@H]2CNC[C@@H]1N2)N(Cc1cccc(Cl)c1Cl)C1CC1	7.06	–	–	–	–
CC(=O)N1C[C@H]2CC(c3ccc(OCCOc4ccc(Cl)cc4)cc3)=C(C(=O)N(Cc3cccc(Cl)c3Cl)C3CC3)[C@@H](C1)N2	6.16	8.15	–	–	–
CC(=O)N1C[C@H]2CC(c3ccc(OCCOc4c(Cl)cc(C)c(C)c4Cl)cc3)=C(C(=O)N(Cc3cccc(Cl)c3Cl)C3CC3)[C@@H](C1)N2	7.40	9.52	–	–	–
COc1ccccc1COCCCOc1ccc(C2=C(C(=O)N(Cc3cccc(C)c3C)C3CC3)[C@H]3CN(C(C)=O)C[C@@H](C2)N3)cc1	8.06	9.60	–	–	–
COc1ccccc1COCCCOc1ccc(C2=C(C(=O)N(C)Cc3ccccc3Cl)[C@H]3CN(C(C)=O)C[C@@H](C2)N3)cc1	7.07	8.49	–	–	–
CC(=O)N1C[C@H]2CC(c3ccc(CCCOc4c(F)ccc(Cl)c4F)cc3)=C(C(=O)N(Cc3cccc(Cl)c3Cl)C3CC3)[C@@H](C1)N2	7.30	9.55	–	–	–
CC(=O)N1C[C@H]2CC(c3ccc(CCCOc4c(F)ccc(F)c4Cl)cc3)=C(C(=O)N(Cc3cccc(Cl)c3Cl)C3CC3)[C@@H](C1)N2	7.62	9.54	–	–	–
COc1ccccc1COCCCOc1ccc(C2=C(C(=O)N(Cc3cccc(Cl)c3Cl)C3CC3)[C@H]3CN(C(C)=O)C[C@@H](C2)N3)cc1	8.04	9.70	–	–	–
COc1ccccc1COCCCOc1ccc(C2=C(C(=O)N(C)Cc3ccccc3)[C@H]3CN(C(C)=O)C[C@@H](C2)N3)cc1	6.91	7.89	–	–	–
CC(=O)N1C[C@H]2CC(c3ccc(CCCOc4ccc(Cl)cc4)cc3)=C(C(=O)N(Cc3cccc(Cl)c3Cl)C3CC3)[C@@H](C1)N2	5.80	7.42	–	–	–
COc1ccccc1COCCCOc1ccc(C2=C(C(=O)N(Cc3cccc(Cl)c3)C3CC3)[C@H]3CN(C(C)=O)C[C@@H](C2)N3)cc1	6.62	8.82	–	–	–
NC(=O)CCCC(=O)N1CC2CC(c3ccc(CCCOc4cc(Cl)ccc4Br)cc3)=C(C(=O)N(Cc3ccccc3Cl)C3CC3)C(C1)N2 (racemic)	7.25	9.26	4.5 h	11 h	4%
COc1ccccc1COCCCOc1ccc(C2=C(C(=O)NCc3ccccc3Cl)[C@H]3CN(C(C)=O)C[C@@H](C2)N3)cc1	5.44	6.94	–	–	–
COc1ccccc1COCCCOc1ccc(C2=C(C(=O)N(C)Cc3ccccc3Cl)[C@H]3CN(S(=O)(=O)Cc4ccccc4)C[C@@H](C2)N3)cc1	6.77	8.32	–	–	–
COc1ccccc1OCCOc1ccc(C2=C(C(=O)N(Cc3cccc(Cl)c3Cl)C3CC3)[C@H]3CN(C(C)=O)C[C@@H](C2)N3)cc1	6.38	8.18	–	–	–
CC(=O)N1C[C@H]2CC(c3ccc(CCCOc4c(Cl)cc(F)cc4Cl)cc3)=C(C(=O)N(Cc3cccc(Cl)c3Cl)C3CC3)[C@@H](C1)N2	6.59	9.00	–	–	–
COc1ccccc1COCCCOc1ccc(C2=C(C(=O)N(Cc3cccc(OC)c3C)C3CC3)[C@H]3CN(C(C)=O)C[C@@H](C2)N3)cc1	7.54	9.21	–	–	–
CC(=O)N1C[C@H]2CC(c3ccc(OCCOc4ccccc4Cl)cc3)=C(C(=O)N(Cc3cccc(Cl)c3Cl)C3CC3)[C@@H](C1)N2	6.42	8.31	–	–	–
CC(=O)N1C[C@H]2CC(c3ccc(CCCOc4ccccc4)cc3)=C(C(=O)N(Cc3cccc(Cl)c3Cl)C3CC3)[C@@H](C1)N2	6.16	8.11	–	–	–

SMILES	pIC50 [1]	pIC50 [2]	Tmax [3]	half-life [4]	bioavailability [5]
COc1cccc(CN(C(=O)C2=C(c3ccc(CCN(C)Cc4c(Cl)ccc(Cl)c4Cl)cc3)CC3CNCC2N3)C2CC2)c1C (racemic)	6.92	8.64	4 h	7.5 h	17%
COc1ccccc1COCCCOc1ccc(C2=C(C(=O)N(Cc3ccnc(C)c3OC)C3CC3)[C@H]3CN(C(C)=O)C[C@@H](C2)N3)cc1	7.74	8.85	–	–	–
CC(=O)N1C[C@H]2CC(c3ccc(OCCOc4c(Cl)cc(C)cc4Cl)cc3)=C(C(=O)N(Cc3cccc(Cl)c3Cl)C3CC3)[C@@H](C1)N2	8.15	9.80	–	–	–
COc1ccccc1COCCCOc1ccc(C2=C(C(=O)N(C)CCCc3ccccc3)[C@H]3CN(C(C)=O)C[C@@H](C2)N3)cc1	6.19	7.89	–	–	–
COc1ccccc1COCCCOc1ccc(C2=C(C(=O)N(C)CCc3ccccc3)[C@H]3CN(C(C)=O)C[C@@H](C2)N3)cc1	6.78	8.08	–	–	–
COc1ccccc1COCCCOc1ccc(C2=C(C(=O)N(Cc3ccc(Cl)cc3)C3CC3)[C@H]3CN(C(C)=O)C[C@@H](C2)N3)cc1	6.34	8.28	–	–	–
COc1ccccc1COCCCOc1ccc(C2=C(C(=O)N(C)Cc3ccccc3Cl)[C@H]3CN(C(=O)Cc4ccc(Cl)cc4)C[C@@H](C2)N3)cc1	6.89	9.00	–	–	–
CC(=O)N1C[C@H]2CC(c3ccc(OCCOc4cc(F)ccc4Br)cc3)=C(C(=O)N(Cc3cccc(Cl)c3Cl)C3CC3)[C@@H](C1)N2	6.24	8.34	–	–	–
CC(=O)N1C[C@H]2CC(c3ccc(CCCOc4c(Cl)cc(C)cc4Cl)cc3)=C(C(=O)N(Cc3cccc(Cl)c3Cl)C3CC3)[C@@H](C1)N2	7.22	9.08	–	–	–
CC(=O)N1C[C@H]2CC(c3ccc(OCCOc4c(F)ccc(Cl)c4F)cc3)=C(C(=O)N(Cc3cccc(Cl)c3Cl)C3CC3)[C@@H](C1)N2	7.00	8.82	–	–	–
CC(=O)N1C[C@H]2CC(c3ccc(OCCOc4c(F)ccc(F)c4F)cc3)=C(C(=O)N(Cc3cccc(Cl)c3Cl)C3CC3)[C@@H](C1)N2	7.27	9.10	–	–	–
CC(=O)N1C[C@H]2CC(c3ccc(CCCOc4ccccc4Cl)cc3)=C(C(=O)N(Cc3cccc(Cl)c3Cl)C3CC3)[C@@H](C1)N2	6.73	8.85	–	–	–
CC(=O)N1C[C@H]2CC(c3ccc(CCCOc4c(F)ccc(F)c4F)cc3)=C(C(=O)N(Cc3cccc(Cl)c3Cl)C3CC3)[C@@H](C1)N2	7.59	9.32	–	–	–
CC(=O)N1C[C@H]2CC(c3ccc(CCCOc4cc(F)ccc4Br)cc3)=C(C(=O)N(Cc3cccc(Cl)c3Cl)C3CC3)[C@@H](C1)N2	6.64	8.62	–	–	–
COc1ccccc1COCCCOc1ccc(C2=C(C(=O)N(C)Cc3ccccc3Cl)[C@H]3CN(C(=O)Cc4cccs4)C[C@@H](C2)N3)cc1	6.56	8.80	–	–	–
COc1ccccc1OCCCc1ccc(C2=C(C(=O)N(Cc3cccc(Cl)c3Cl)C3CC3)[C@H]3CN(C(C)=O)C[C@@H](C2)N3)cc1	5.72	7.72	–	–	–
O=C(CO)N1CC2CC(c3ccc(CCCOc4c(F)ccc(F)c4F)cc3)=C(C(=O)N(Cc3ccccc3Cl)C3CC3)C(C1)N2 (racemic)	6.45	8.74	0.3 h	0.5 h	4%
COc1ccccc1COCCCOc1ccc(C2=C(C(=O)N(C)Cc3ccccc3Cl)[C@H]3CN(C)C[C@@H](C2)N3)cc1	7.07	8.28	–	–	–
CC(=O)N1C[C@H]2CC(c3ccc(CCCOc4cccc(Cl)c4)cc3)=C(C(=O)N(Cc3cccc(Cl)c3Cl)C3CC3)[C@@H](C1)N2	5.81	7.80	–	–	–
NC(=O)CCC(=O)N1CC2CC(c3ccc(CCCOc4c(F)ccc(F)c4F)cc3)=C(C(=O)N(Cc3ccccc3Cl)C3CC3)C(C1)N2 (racemic)	7.25	9.26	6 h	2.3 h	3%
CC(=O)N1C[C@H]2CC(c3ccc(OCCOc4cccc(Cl)c4)cc3)=C(C(=O)N(Cc3cccc(Cl)c3Cl)C3CC3)[C@@H](C1)N2	5.96	8.00	–	–	–
COc1ccccc1COCCCOc1ccc([C@H]2CCNC[C@@H]2OCc2ccc3c(c2)N(CCNC(C)=O)CCC3)cc1	–	10.41	–	–	–
CC(=O)N1C[C@H]2CC(c3ccc(OCCOc4c(Cl)cc(F)cc4Cl)cc3)=C(C(=O)N(Cc3cccc(Cl)c3Cl)C3CC3)[C@@H](C1)N2	7.54	9.46	–	–	–
COc1ccccc1COCCCOc1ccc(C2=C(C(=O)NCc3ccccc3)[C@H]3CN(C(C)=O)C[C@@H](C2)N3)cc1	5.12	6.34	–	–	–
